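The compound was tested at five concentrations on cells cultured in 96-well plates, with a 48-hour exposure period. TGI is the concentration that stops growth completely.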
Assays:
Experiment in all cases: inhibition of tumour cell growth, NCI panel, 48 h
786-0 renal = tested on: 786-0 renal
A549 NSCLC = tested on: A549 NSCLC
ACHN renal = tested on: ACHN renal
CAKI-1 renal = tested on: CAKI-1 renal
CCRF-CEM leukemia = tested on: CCRF-CEM leukemia
COLO 205 colon = tested on: COLO 205 colon
DLD-1 colon = tested on: DLD-1 colon
DMS 114 small cell lung = tested on: DMS 114 small cell lung
DMS 273 small cell lung = tested on: DMS 273 small cell lung
EKVX NSCLC = tested on: EKVX NSCLC
HCC-2998 colon = tested on: HCC-2998 colon
HCT-116 colon = tested on: HCT-116 colon
HCT-15 colon = tested on: HCT-15 colon
HL-60(TB) leukemia = tested on: HL-60(TB) leukemia
HOP-18 NSCLC = tested on: HOP-18 NSCLC
HOP-62 NSCLC = tested on: HOP-62 NSCLC
HOP-92 NSCLC = tested on: HOP-92 NSCLC
HT29 colon = tested on: HT29 colon
IGROV1 ovarian = tested on: IGROV1 ovarian
K-562 leukemia = tested on: K-562 leukemia
KM12 colon = tested on: KM12 colon
KM20L2 colon = tested on: KM20L2 colon
LOX IMVI melanoma = tested on: LOX IMVI melanoma
LXFL 529 NSCLC = tested on: LXFL 529 NSCLC
M14 melanoma = tested on: M14 melanoma
M19-MEL melanoma = tested on: M19-MEL melanoma
MALME-3M melanoma = tested on: MALME-3M melanoma
MOLT-4 leukemia = tested on: MOLT-4 leukemia
NCI-H226 lung = tested on: NCI-H226 lung
NCI-H23 lung = tested on: NCI-H23 lung
NCI-H460 lung = tested on: NCI-H460 lung
NCI-H522 lung = tested on: NCI-H522 lung
OVCAR-3 ovarian = tested on: OVCAR-3 ovarian
OVCAR-4 ovarian = tested on: OVCAR-4 ovarian
OVCAR-5 ovarian = tested on: OVCAR-5 ovarian
OVCAR-8 ovarian = tested on: OVCAR-8 ovarian
RPMI-8226 leukemia = tested on: RPMI-8226 leukemia
RXF 393 renal = tested on: RXF 393 renal
SF-268 CNS = tested on: SF-268 CNS
SF-295 CNS = tested on: SF-295 CNS
SF-539 CNS = tested on: SF-539 CNS
SK-MEL-2 melanoma = tested on: SK-MEL-2 melanoma
SK-MEL-28 melanoma = tested on: SK-MEL-28 melanoma
SK-MEL-5 melanoma = tested on: SK-MEL-5 melanoma
SK-OV-3 ovarian = tested on: SK-OV-3 ovarian
SNB-19 CNS = tested on: SNB-19 CNS
SNB-75 CNS = tested on: SNB-75 CNS
SNB-78 CNS = tested on: SNB-78 CNS
SW-620 colon = tested on: SW-620 colon
TK-10 renal = tested on: TK-10 renal
U251 CNS = tested on: U251 CNS
UACC-257 melanoma = tested on: UACC-257 melanoma
UACC-62 melanoma = tested on: UACC-62 melanoma
UO-31 renal = tested on: UO-31 renal
XF 498 CNS = tested on: XF 498 CNS

Measured: TGI

COc1ccc(C2Oc3ccc(O)cc3[C@@H]2C)cc1OC (stereo not given in full)
> 100 µM: all assays above

From PubChem BioAssay (NCI)
